In patent US20240327427A1, “NEW COMPOUNDS FOR THE TREATMENT OF ALZHEIMER'S DISEASE” (Icahn School of Medicine at Mount Sinai, priority 2020, published 2024):
“Also recorded” adds a separate entry of the source.

Assays:
[1] = system: ATP6V1A; test: ATP6V1A mRNA expression in drug-treated NPCs (LINCS profiles); assay type: cell-based, human; conditions: drug-treated vs DMSO-treated, LINCS data
Source text: Compounds were screened for drugs that can rescue the in vitro and in vivo phenotypes arising from ATP6V1A deficits. Using their drug repositioning tool, Ensemble of Multiple Drug Repositioning Approaches (EMUDRA) (Zhou et al., 2018b), the inventors matched the disease signature from the BM36-PHG region and the signatures of 3,629 drugs tested in the NPCs in the Library of Integrated Network-based Cellular Signatures (LINCS) project (FIG. 6A). The inventors further prioritized candidate drugs by their potential to increase the mRNA expression of ATP6V1A in the NPCs.
To identify existing drugs that can restore the molecular expression change in the LOAD brains, the inventors performed a drug repositioning analysis using EMUDRA, which provides a novel computational algorithm to match disease signatures and drug-induced signatures. The inventors downloaded drug-treated gene expression profiles (level 3 data of quantile-normalized and log 2 transformed expression levels from human iPSC-derived neural progenitor cells (NPCs) from the Library of Integrated Network-Based Cellular Signatures (LINCS) program. After removing probes sets mapping to multiple genes or without known gene annotation, the remaining data were adjusted for batch effects using linear regression. The mean expression level of multiple probe sets that match to the same gene was used as the expression level for that gene. For each drug, the applied drug signature was the transcriptome-wide expression difference between drug-treated and DMSO-treated gene expression profiles. The inventors matched each of the drug signatures to the LOAD signature using EMUDRA to find drugs that could reverse the LOAD signature. […] In total, 3,629 drug signatures were analyzed and ranked. The inventors further prioritized the top-ranked drugs that can increase ATP6V1A mRNA expression in the NPCs.

[2] = system: Vha68-1, Vha68-2 (fly orthologs of ATP6V1A); test: Vha68-1/Vha68-2 mRNA levels in fly brains after drug feeding; assay type: in vivo, Drosophila; conditions: fed
Method: (§1) Since Vha68-2 decreased more dramatically compared to Vha68-1 in Aβ42 fly brains (FIG. 4Q), an inference was made that NCH-51 treatment counteracts pathological reductions in Vha68-2 levels. […] More than 25 flies for each genotype were collected and frozen. Heads were mechanically isolated, and total RNA was extracted using TRIzol Reagent (Thermo Fisher Scientific) according to the manufacturer's protocol with an additional centrifugation step (16,000×g for 10 min) to remove cuticle membranes prior to the addition of chloroform. Total RNA was reverse-transcribed using PrimeScript RT-PCR kit (TaKaRa Bio), and qRT-PCR was performed using Thunderbird SYBR qPCR Mix (Toyobo) on a CFX96 real time PCR detection system (Bio-Rad Laboratories). The average threshold cycle value was calculated from at least three replicates per sample. Expression of genes of interest was standardized relative to GAPDH1. Primer sequences are provided below. Flies were fed with the food containing 10 μM or 50 μM NCH51 or vehicle (final concentration 0.02% dimethyl sulfoxide) from the day after eclosion. These food vials were changed every 3-4 days.

[3] = system: Aβ42 flies; test: Neurodegeneration (vacuole area) in Aβ42 fly brains after drug feeding; assay type: in vivo, Drosophila
Method: Aβ42 flies were treated with 0, 10, or 50 μM of NCH-51 during aging to examine its effects on neurodegeneration.
Heads of male flies were fixed in 4% paraformaldehyde for 24 hours at 4° C. and embedded in paraffin. Serial sections (6 μm thickness) through the entire heads were prepared, stained with hematoxylin and eosin (Sigma-Aldrich), and examined by bright-field microscopy. Images of the sections were captured with AxioCam 105 color (Carl Zeiss). To score brain vacuolization, the inventors performed microscopy of serial brain sections within the central neuropil regions and selected the images with the most severe vacuolization from each fly to score area of vacuolization. The inventors selected the section with the most severe neurodegeneration in the same brain area from each individual fly and the area of vacuoles was measured using Image J (NIH). The analyses were performed more than two times and two to three persons were independently involved in these tasks to avoid any bias.
Flies were fed with the food containing 10 μM or 50 μM NCH51 or vehicle (final concentration 0.02% dimethyl sulfoxide) from the day after eclosion. These food vials were changed every 3-4 days.

[4] = system: Aβ42; test: Aβ42 levels in fly brains (western blot); assay type: in vivo, Drosophila; conditions: Aβ42 flies, fed
Method: Aβ42 flies were treated with 0, 10, or 50 μM of NCH-51 during aging to examine its effects on neurodegeneration. […] Western blotting was performed as described previously. To detect human Aβ42, ten fly heads for each genotype were homogenized in Tris-Glycine SDS sample buffer, and the same amount of the lysate was loaded to 18% Tris-Glycine gels and transferred to nitrocellulose membrane. The membranes were boiled in PBS for 3 min, blocked with 5% nonfat dry milk, blotted with the anti-AD 6E10 antibody (Signet, Covance), incubated with appropriate secondary antibody and developed using ECL Western Blotting Detection Reagents (GE Healthcare Life Sciences). The membranes were also probed with anti-tubulin (Sigma-Aldrich) as the loading control in each experiment. To detect human tau, ten fly heads for each genotype were homogenized in Tris-Glycine SDS sample buffer, and the same amount of the lysate was loaded to each lane of 10% Tris-Glycine gels and transferred to nitrocellulose membrane. The membranes were blocked with 5% nonfat dry milk, blotted with the antibodies described below, incubated with the appropriate secondary antibody and developed using ECL Prime Western Blotting Detection Reagent (GE Healthcare Life Sciences). […] Imaging was performed with ImageQuant LAS 4000 (GE Healthcare Life Sciences), and the signal intensity was quantified using Image J (NIH).

[5] = system: 16 genes related to synaptic biology; test: mRNA levels of key regulator genes of neuronal activity in Aβ42 fly brains; assay type: in vivo, Drosophila
Method: as §1, with “Aβ42 flies were treated with 0, 10, or 50 μM of NCH-51 during aging” for “Since Vha68-2 decreased more dramatically compared”, “examine its effects on neurodegeneration.” for “Vha68-1 in Aβ42 fly brains (FIG. 4Q), an inference was made that NCH-51 treatment counteracts pathological reductions in Vha68-2 levels.”

[6] = Aβ42 flies, 50 μM in food vs 0 μM

CC(C)C(=O)SCCCCCCC(=O)Nc1nc(-c2ccccc2)cs1 [NCH-51]
ATP6V1A (log2FC) [1]: 0.71 log2FC
mRNA levels of Vha68-2 ([2]; Aβ42 fly brains, dose-dependent): significantly increased; also recorded: increased mRNA levels of Vha68-2
mRNA levels of Vha68-1 or Vha68-2 ([2]; control flies): did not increase
neurodegeneration in cell body and central neuropil regions ([3]; 21-day-old Aβ42 fly brains): suppressed neurodegeneration
cell loss (cell body region neurodegeneration) [3, 6]: significantly suppressed
neuropil degeneration [3, 6]: significantly suppressed
Aβ42 levels in fly brains [4]: did not affect
mRNA levels of synaptic biology related genes ([5]; dose-dependent): increased mRNA levels of synaptic biology related genes
number of key regulator genes of neuronal activity with increased mRNA levels ([5]; fed): 9 out of 16
